Assay results reported in patent US20070049564A1 (Wyeth, priority 2005, published 2007).
Values after ≈ are worked out from the molar mass of the structure shown. Like-named read-outs stand apart in the source and are kept apart here.

Tests used:
Experiment in all cases: MIC, broth microdilution
E. coli GC 2233 = settings: Escherichia coli
E. coli GC 2270 = settings: Escherichia coli
E. coli GC 2271 = settings: Escherichia coli
E. coli GC 2272 = settings: Escherichia coli
E. coli GC 4560 = settings: Escherichia coli
E. coli GC 6465 = settings: Escherichia coli
E. coli GC 3226 = settings: Escherichia coli
E. coli GC 2203 = settings: Escherichia coli
E. coli GC 1073 = settings: Escherichia coli
P. aeruginosa GC 2214 = settings: Pseudomonas aeruginosa
S. aureus GC 1131 = settings: Staphylococcus aureus
S. aureus GC 6467 = settings: Staphylococcus aureus
S. aureus GC 1079 = settings: Staphylococcus aureus
S. aureus GC 6335 = settings: Staphylococcus aureus
S. aureus GC 6469 = settings: Staphylococcus aureus
S. epidermidis GC 4935 = settings: Staphylococcus epidermidis
E. faecalis GC 2265 = settings: Enterococcus faecalis
E. faecalis GC 2267 = settings: Enterococcus faecalis
E. faecium GC 2243 = settings: Enterococcus faecium
c. albicans GC 3066 = tested on: c. albicans GC 3066

MIC (E. coli GC 2233; GC2233, read-out: MINIMAL INHIBITORY CONCENTRATION MIC, Human Serum): > 64 µg/mL
MIC (E. coli GC 2233; GC2233, read-out: MINIMAL INHIBITORY CONCENTRATION MIC, Mouse Serum): > 64 µg/mL
MIC (E. coli GC 2233; GC2233, read-out: MINIMAL INHIBITORY CONCENTRATION MIC, Water): > 64 µg/mL
MIC (E. coli GC 2270; GC2270, read-out: MINIMAL INHIBITORY CONCENTRATION MIC, Human Serum): > 64 µg/mL
MIC (E. coli GC 2270; GC2270, read-out: MINIMAL INHIBITORY CONCENTRATION MIC, Mouse Serum): > 64 µg/mL
MIC (E. coli GC 2270; GC2270, read-out: MINIMAL INHIBITORY CONCENTRATION MIC, Water): > 64 µg/mL
MIC (E. coli GC 2271; GC2271, read-out: MINIMAL INHIBITORY CONCENTRATION MIC, Human Serum): > 64 µg/mL
MIC (E. coli GC 2271; GC2271, read-out: MINIMAL INHIBITORY CONCENTRATION MIC, Mouse Serum): > 64 µg/mL
MIC (E. coli GC 2271; GC2271, read-out: MINIMAL INHIBITORY CONCENTRATION MIC, Water): > 64 µg/mL
MIC (E. coli GC 2272; GC2272, read-out: MINIMAL INHIBITORY CONCENTRATION MIC, Human Serum): > 64 µg/mL
MIC (E. coli GC 2272; GC2272, read-out: MINIMAL INHIBITORY CONCENTRATION MIC, Mouse Serum): > 64 µg/mL
MIC (E. coli GC 2272; GC2272, read-out: MINIMAL INHIBITORY CONCENTRATION MIC, Water): > 64 µg/mL
MIC (E. coli GC 4560; GC4560, read-out: MINIMAL INHIBITORY CONCENTRATION MIC, Human Serum): 4 µg/mL (≈ 5.83 µM)
MIC (E. coli GC 4560; GC4560, read-out: MINIMAL INHIBITORY CONCENTRATION MIC, Mouse Serum): 4 µg/mL (≈ 5.83 µM)
MIC (E. coli GC 4560; GC4560, read-out: MINIMAL INHIBITORY CONCENTRATION MIC, Water): 4 µg/mL (≈ 5.83 µM)
MIC (E. coli GC 6465; GC6465, read-out: MINIMAL INHIBITORY CONCENTRATION MIC, Human Serum): > 64 µg/mL
MIC (E. coli GC 6465; GC6465, read-out: MINIMAL INHIBITORY CONCENTRATION MIC, Mouse Serum): > 64 µg/mL
MIC (E. coli GC 6465; GC6465, read-out: MINIMAL INHIBITORY CONCENTRATION MIC, Water): > 64 µg/mL
MIC (E. coli GC 3226; GC3226, read-out: MINIMAL INHIBITORY CONCENTRATION MIC, Human Serum): > 64 µg/mL
MIC (E. coli GC 3226; GC3226, read-out: MINIMAL INHIBITORY CONCENTRATION MIC, Mouse Serum): > 64 µg/mL
MIC (E. coli GC 3226; GC3226, read-out: MINIMAL INHIBITORY CONCENTRATION MIC, Water): > 64 µg/mL
MIC (E. coli GC 2203; GC2203, read-out: MINIMAL INHIBITORY CONCENTRATION MIC, Human Serum): > 64 µg/mL
MIC (E. coli GC 2203; GC2203, read-out: MINIMAL INHIBITORY CONCENTRATION MIC, Mouse Serum): > 64 µg/mL
MIC (E. coli GC 2203; GC2203, read-out: MINIMAL INHIBITORY CONCENTRATION MIC, Water): > 64 µg/mL
MIC (E. coli GC 1073; GC1073, read-out: MINIMAL INHIBITORY CONCENTRATION MIC, Human Serum): > 64 µg/mL
MIC (E. coli GC 1073; GC1073, read-out: MINIMAL INHIBITORY CONCENTRATION MIC, Mouse Serum): > 64 µg/mL
MIC (E. coli GC 1073; GC1073, read-out: MINIMAL INHIBITORY CONCENTRATION MIC, Water): > 64 µg/mL
MIC (P. aeruginosa GC 2214; GC2214, read-out: MINIMAL INHIBITORY CONCENTRATION MIC, Human Serum): > 64 µg/mL
MIC (P. aeruginosa GC 2214; GC2214, read-out: MINIMAL INHIBITORY CONCENTRATION MIC, Mouse Serum): > 64 µg/mL
MIC (P. aeruginosa GC 2214; GC2214, read-out: MINIMAL INHIBITORY CONCENTRATION MIC, Water): > 64 µg/mL
MIC (S. aureus GC 1131; GC1131, read-out: MINIMAL INHIBITORY CONCENTRATION MIC, Human Serum): 4 µg/mL (≈ 5.83 µM)
MIC (S. aureus GC 1131; GC1131, read-out: MINIMAL INHIBITORY CONCENTRATION MIC, Mouse Serum): 2 µg/mL (≈ 2.92 µM)
MIC (S. aureus GC 1131; GC1131, read-out: MINIMAL INHIBITORY CONCENTRATION MIC, Water): 4 µg/mL (≈ 5.83 µM)
MIC (S. aureus GC 6467; GC6467, read-out: MINIMAL INHIBITORY CONCENTRATION MIC, Human Serum): 4 µg/mL (≈ 5.83 µM)
MIC (S. aureus GC 6467; GC6467, read-out: MINIMAL INHIBITORY CONCENTRATION MIC, Mouse Serum): 2 µg/mL (≈ 2.92 µM)
MIC (S. aureus GC 6467; GC6467, read-out: MINIMAL INHIBITORY CONCENTRATION MIC, Water): 4 µg/mL (≈ 5.83 µM)
MIC (S. aureus GC 1079; GC1079, read-out: MINIMAL INHIBITORY CONCENTRATION MIC, Human Serum): 4 µg/mL (≈ 5.83 µM)
MIC (S. aureus GC 1079; GC1079, read-out: MINIMAL INHIBITORY CONCENTRATION MIC, Mouse Serum): 2 µg/mL (≈ 2.92 µM)
MIC (S. aureus GC 1079; GC1079, read-out: MINIMAL INHIBITORY CONCENTRATION MIC, Water): 8 µg/mL (≈ 11.7 µM)
MIC (S. aureus GC 6335; GC6335, read-out: MINIMAL INHIBITORY CONCENTRATION MIC, Human Serum): 4 µg/mL (≈ 5.83 µM)
MIC (S. aureus GC 6335; GC6335, read-out: MINIMAL INHIBITORY CONCENTRATION MIC, Mouse Serum): 4 µg/mL (≈ 5.83 µM)
MIC (S. aureus GC 6335; GC6335, read-out: MINIMAL INHIBITORY CONCENTRATION MIC, Water): 4 µg/mL (≈ 5.83 µM)
MIC (S. aureus GC 6469; GC6469, read-out: MINIMAL INHIBITORY CONCENTRATION MIC, Human Serum): 4 µg/mL (≈ 5.83 µM)
MIC (S. aureus GC 6469; GC6469, read-out: MINIMAL INHIBITORY CONCENTRATION MIC, Mouse Serum): 2 µg/mL (≈ 2.92 µM)
MIC (S. aureus GC 6469; GC6469, read-out: MINIMAL INHIBITORY CONCENTRATION MIC, Water): 4 µg/mL (≈ 5.83 µM)
MIC (S. epidermidis GC 4935; GC4935, read-out: MINIMAL INHIBITORY CONCENTRATION MIC, Human Serum): 4 µg/mL (≈ 5.83 µM)
MIC (S. epidermidis GC 4935; GC4935, read-out: MINIMAL INHIBITORY CONCENTRATION MIC, Mouse Serum): 4 µg/mL (≈ 5.83 µM)
MIC (S. epidermidis GC 4935; GC4935, read-out: MINIMAL INHIBITORY CONCENTRATION MIC, Water): 8 µg/mL (≈ 11.7 µM)
MIC (E. faecalis GC 2265; GC2265, read-out: MINIMAL INHIBITORY CONCENTRATION MIC, Human Serum): 4 µg/mL (≈ 5.83 µM)
MIC (E. faecalis GC 2265; GC2265, read-out: MINIMAL INHIBITORY CONCENTRATION MIC, Mouse Serum): 4 µg/mL (≈ 5.83 µM)
MIC (E. faecalis GC 2265; GC2265, read-out: MINIMAL INHIBITORY CONCENTRATION MIC, Water): 4 µg/mL (≈ 5.83 µM)
MIC (E. faecalis GC 2267; GC2267, read-out: MINIMAL INHIBITORY CONCENTRATION MIC, Human Serum): 4 µg/mL (≈ 5.83 µM)
MIC (E. faecalis GC 2267; GC2267, read-out: MINIMAL INHIBITORY CONCENTRATION MIC, Mouse Serum): 2 µg/mL (≈ 2.92 µM)
MIC (E. faecalis GC 2267; GC2267, read-out: MINIMAL INHIBITORY CONCENTRATION MIC, Water): 4 µg/mL (≈ 5.83 µM)
MIC (E. faecium GC 2243; GC2243, read-out: MINIMAL INHIBITORY CONCENTRATION MIC, Human Serum): 4 µg/mL (≈ 5.83 µM)
MIC (E. faecium GC 2243; GC2243, read-out: MINIMAL INHIBITORY CONCENTRATION MIC, Mouse Serum): 2 µg/mL (≈ 2.92 µM)
MIC (E. faecium GC 2243; GC2243, read-out: MINIMAL INHIBITORY CONCENTRATION MIC, Water): 4 µg/mL (≈ 5.83 µM)
MIC (c. albicans GC 3066; Candida albicans, GC3066, read-out: MINIMAL INHIBITORY CONCENTRATION MIC): > 64 µg/mL
MINIMAL INHIBITORY CONCENTRATION MIC (c. albicans GC 3066; Human Serum): >64 UG/ML
MINIMAL INHIBITORY CONCENTRATION MIC (c. albicans GC 3066; Mouse Serum): >64 UG/ML
SMILES: CCCCOC(=O)N(CC(=O)Nc1cc(N(C)C)c2c(c1O)C(=O)C1=C(O)[C@]3(O)C(=O)C(C(N)=O)=C(O)[C@@H](N(C)C)[C@@H]3C[C@@H]1C2)C(C)(C)C [Example 58, butyl 2-{[(5aR,6aS,7S,10aS)-9-(aminocarbonyl)-4,7-bis(dimethylamino)-1,8,10a,11-tetrahydroxy-10,12-dioxo-5,5a,6,6a,7,10,10a,12-octahydrotetracen-2-yl]amino}-2-oxoethyl(tert-butyl)carbamate]
